Source: patent publication US8853490B2 (priority 2010, dated 2014)
Read-outs that look alike come from different tables or passages of the source.

Tests used:
[1] = system: Fusarium graminearum (FGR; isolate 73B ISU); format: cell-based
[2] = system: Fusarium verticillioides (FVE; isolate MO33); format: cell-based
[3] = system: Diplodia maydis (DMA; isolate Warren-IN-96); format: cell-based
[4] = system: Colletotrichum graminicola (CGR; isolate Carroll-IA-99); conditions: general statement on parent polypeptides; cited from earlier work
[5] = system: Fusarium graminearum (FGR; isolate 73B ISU); conditions: general statement on parent polypeptides; cited from earlier work
[6] = system: Fusarium verticillioides (FVE; isolate MO33); conditions: general statement on parent polypeptides; cited from earlier work
[7] = system: Diplodia maydis (DMA; isolate Warren-IN-96); conditions: general statement on parent polypeptides; cited from earlier work
[8] = system: Colletotrichum graminicola (CGR; isolate Carroll-IA-99); format: cell-based

Row | Substance | In vitro antifungal activity (IC50) against F. graminearum (FGR) ([1]; high salt conditions) [ppm] | In vitro antifungal activity (IC50) against F. verticillioides (FVE) [2] [ppm] | In vitro antifungal activity (IC50) against F. graminearum (FGR) ([1]; low salt conditions) [ppm] | further results
1 | LB-9827-3B-25F2: LBNL variant generated through gene shuffling of the LB-9827-1 mature peptide coding sequence (LSKYGGECSREHNTCTYLKGGKNQVVACGSAANKKCKRDRHHCEYDDYHKTVDCQTPV; Synthetic peptide LB-9827-3B-25F2) | 2.5 | 15 |  | 
2 | LB-5220: parent antifungal polypeptide isolated from Penicillium simplicissimum, previously disclosed in U.S. Pat. No. 7,306,946 (LKYTGTCTRANNQCKYKGQNDRDTFVKCPTFANKKCTRDGAPCSFDSYSRAVTCD; listed as Penicillium simplicissimum) [reference compound] | >100 |  | >10 | In vitro antifungal activity (IC50) against D. maydis (DMA) ([3]; high salt conditions): 50 ppm; In vitro antifungal activity (IC50) against D. maydis (DMA) ([3]; low salt conditions): <0.1 ppm; antifungal activity against Colletotrichum graminicola (CGR), in words [4]: exhibit antifungal activity; antifungal activity against Fusarium graminearum (FGR), in words [5]: exhibit antifungal activity; antifungal activity against Fusarium verticillioides (FVE), in words [6]: exhibit antifungal activity; antifungal activity against Diplodia maydis (DMA), in words [7]: exhibit antifungal activity
3 | LB-5220 (r2 5G7): LBNL variant generated through gene shuffling of the LB-5220 mature peptide coding sequence (LKYTGTCRRANNQCKYKGQNNRDTFVKCPTFANKKCTRDGAKCSFDSYSRAVTCD; Synthetic peptide LB-5220 (r2-5G7)) | >100 |  | >10 | 
4 | LB-9827-3B-21E10: LBNL variant generated through gene shuffling of the LB-9827-1 mature peptide coding sequence (LSKYGGECSRAHNTCTYRKGGKNQVVNCPSAANKKCKSDRHHCEYDEYHKRVDCQTPV; Synthetic peptide LB-9827-3B-21E10) | 1.25 | 30 |  | 
5 | LB-5220 (r2 6F2): LBNL variant generated through gene shuffling of the LB-5220 mature peptide coding sequence (LKYTGTCRRANNQCKYKGQNNRDTFVKCPTFANKKCTRDGEKCSFDSYSRAVTCD; LB-5220 (r2-6F2)) | >100 |  | >10 | 
6 | LB-9827-3A-11E4: LBNL variant generated through gene shuffling of the LB-9827-1 mature peptide coding sequence (LSKYGGECSRKHNTCTYKKGGKNQIVNCPTAANKRCKTDRHHCEYDEYHRRVDCQTPV; LB-9827-3A-11E4) | 0.63 | 15 |  | 
7 | LB-5220 (ps 1B4): LBNL variant generated through gene shuffling of the LB-5220 mature peptide coding sequence (LKYTGTCTRKNNQCKYRGQNNRDTFVKCPTFANKRCTRDGAPCSFDSYSRAVTCD; Synthetic peptide LB-5220 (ps-1B4)) | >100 |  | >10 | 
8 | LB-9827-3B-25G5: LBNL variant generated through gene shuffling of the LB-9827-1 mature peptide coding sequence (LSKYGGECSRAHNTCTYRKGGKNQVVKCGTAANKKCKSDRHHCEYDDYHKRVDCQTPV; Synthetic peptide LB-9827-3B-25G5) | 2.5 | 3.8 |  | 
9 | LB-9827-1: parent antifungal polypeptide from the fungus Monascus ruber, previously disclosed in U.S. Pat. No. 7,306,946 (LSKFGGECSLKHNTCTYLKGGKNHVVNCGSAANKKCKSDRHHCEYDEHHKRVDCQTPV; Monascus ruber) [reference compound] | 1.5 |  | <0.1 | In vitro antifungal activity (IC50) against C. graminicola (CGR) ([8]; high salt conditions): 3 ppm; In vitro antifungal activity (IC50) against C. graminicola (CGR) ([8]; low salt conditions): 1.5 ppm; In vitro antifungal activity (IC50) against D. maydis (DMA) ([3]; high salt conditions): 12 ppm; In vitro antifungal activity (IC50) against D. maydis (DMA) ([3]; low salt conditions): 1.5 ppm; antifungal activity against Colletotrichum graminicola (CGR), in words [4]: exhibit antifungal activity; antifungal activity against Fusarium graminearum (FGR), in words [5]: exhibit antifungal activity; antifungal activity against Fusarium verticillioides (FVE), in words [6]: exhibit antifungal activity; antifungal activity against Diplodia maydis (DMA), in words [7]: exhibit antifungal activity
